The text below walks through data of PubChem BioAssay (NCI).

Some test systems named below: A549 NSCLC; NCI-H522 lung; HCT-15 colon; COLO 205 colon; CCRF-CEM leukemia; IGROV1 ovarian; DU-145 prostate; SK-MEL-5 melanoma; NCI/ADR-RES ovarian; SR leukemia.
Common to all, as to assay: growth of human tumour cells (NCI), 48 h

Where “and” joins values, the source holds several entries; their conditions need not be identical. Equal entries are not always repeated.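 All cell lines were grown in 96-well plates and treated with compound for 48 hours. GI50 is the concentration that inhibits growth by half. TGI denotes the concentration required for complete inhibition of growth.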 Where only a bound is given, the exact number is not on record here.

As for `COc1cc(-c2oc3c(OC)c(OC)cc(O)c3c(=O)c2OC)ccc1O`, the TGI in the test with A549 NSCLC is over 50 µM; in the test on NCI-H522 lung, 31.3 µM and > 50 µM; with HCT-15 colon it was over 100 µM; in the test on COLO 205 colon, over 100 µM; with CCRF-CEM leukemia it was > 100 µM and 21.4 µM; with IGROV1 ovarian it was > 100 µM and 35.5 µM. In addition, the TGI was over 50 µM in the test with DU-145 prostate; > 100 µM and 37.7 µM in the test on SK-MEL-5 melanoma; over 50 µM with NCI/ADR-RES ovarian. In addition, the GI50 in the test with SK-MEL-5 melanoma was 2.37 µM and 9.11 µM.
For `Cc1c(O)c(=O)ccn1C1OC(CO)C(O)C1O` (stereo unspecified), the TGI with A549 NSCLC, with NCI-H522 lung, in the test on SR leukemia, in the test with HCT-15 colon, in the test with COLO 205 colon and in the test on CCRF-CEM leukemia was over 100 µM in each case. The molecule further came in with a TGI in the test on SK-MEL-5 melanoma of over 100 µM.
For the molecule `Cc1ccc(S(=O)(=O)CNC(=S)CCCC(=S)NCS(=O)(=O)c2ccc(C)cc2)cc1`, the TGI in the test on A549 NSCLC, in the test with NCI-H522 lung, with SR leukemia, in the test on HCT-15 colon, in the test with COLO 205 colon and with CCRF-CEM leukemia was over 100 µM each time. The TGI in the test with IGROV1 ovarian and in the test on SK-MEL-5 melanoma was over 100 µM throughout.
Take `O=c1cccc(C#Cc2ccccc2)o1`: the GI50 in the test with A549 NSCLC is 11.1 µM; in the test on NCI-H522 lung, 4.06 µM; in the test with HCT-15 colon it was 6.9 µM; in the test with COLO 205 colon, 12.6 µM; with IGROV1 ovarian, 9.58 µM; with DU-145 prostate it was 7.74 µM. The GI50 in the test on SK-MEL-5 melanoma was 2.51 µM; in the test with NCI/ADR-RES ovarian it was 7.11 µM. Moreover, the TGI was over 90.9 µM in the test on A549 NSCLC; over 40.4 µM in the test on NCI-H522 lung; 23.6 µM with HCT-15 colon; over 44.9 µM in the test on COLO 205 colon; over 44 µM in the test with CCRF-CEM leukemia; over 87.3 µM in the test with IGROV1 ovarian. Moreover, the figures for the TGI in the test on DU-145 prostate, in the test on SK-MEL-5 melanoma and in the test on NCI/ADR-RES ovarian were over 68.6 µM, 9.59 µM and over 26.6 µM, respectively.
`Cc1ccc(S(=O)(=O)N2CCC3(C(/C=C/c4ccccc4)=Nc4ccccc43)C2c2ccccc2)cc1` (stereo unspecified): the TGI in the test with A549 NSCLC, with NCI-H522 lung, in the test with SR leukemia, in the test with HCT-15 colon, in the test on COLO 205 colon and with CCRF-CEM leukemia was over 100 µM in each case. Also, the TGI was 24.6 µM with IGROV1 ovarian and over 100 µM in the test with SK-MEL-5 melanoma.
Turning to `C=CCNC1=C(C(=O)OCC)C(=O)CO1`, the TGI in the test on A549 NSCLC, with NCI-H522 lung, in the test on SR leukemia, in the test on HCT-15 colon, in the test with CCRF-CEM leukemia and with IGROV1 ovarian was over 100 µM each time. The molecule also came in with a TGI in the test with SK-MEL-5 melanoma of over 100 µM.
Consider `CC1CCCC(C(O)CC2CC(=O)N(c3ccccc3)C(=O)C2)C1=O` (stereo unspecified), for which the TGI in the test on A549 NSCLC, in the test on NCI-H522 lung, in the test on SR leukemia, in the test with COLO 205 colon, in the test with CCRF-CEM leukemia and in the test on IGROV1 ovarian was over 100 µM in each case.
As to `COc1cc2c3c(n(CCCN4CCN(C)CC4)c(=O)c2cc1OC)-c1cc2c(cc1C3=O)OCO2`, the GI50 with A549 NSCLC is 18.7 µM; with NCI-H522 lung, 15.4 µM; in the test with HCT-15 colon, 16 µM; in the test with COLO 205 colon, 10.3 µM; in the test with CCRF-CEM leukemia it was 2.44 µM; with IGROV1 ovarian, 7.05 µM. Moreover, the GI50 was 10.6 µM in the test on DU-145 prostate, 14.2 µM with SK-MEL-5 melanoma and 1.55 µM with NCI/ADR-RES ovarian. Besides, the TGI in the test on A549 NSCLC amounted to 84.2 µM; in the test on NCI-H522 lung it was 45.4 µM; in the test with HCT-15 colon, 36.1 µM; with COLO 205 colon, 40.3 µM; in the test with CCRF-CEM leukemia it was 17.7 µM; with IGROV1 ovarian it was 80.6 µM. Also, the figures for the TGI in the test with DU-145 prostate, in the test on SK-MEL-5 melanoma and in the test on NCI/ADR-RES ovarian were 27.5 µM, 32.2 µM and 12.9 µM, respectively.
Turning to `NC1=NC(c2ccccc2)N=C(Nc2ccccc2)N1` (stereo unspecified), the GI50 is over 100 µM in the test with A549 NSCLC; over 100 µM with HCT-15 colon; 97.9 µM with COLO 205 colon; over 100 µM in the test with CCRF-CEM leukemia; 39.4 µM in the test with IGROV1 ovarian; over 100 µM in the test on DU-145 prostate. In addition, the results for the GI50 with SK-MEL-5 melanoma and in the test with NCI/ADR-RES ovarian were 93 µM and over 100 µM, respectively. The TGI with A549 NSCLC, with HCT-15 colon, with COLO 205 colon, with CCRF-CEM leukemia, in the test on IGROV1 ovarian and in the test on DU-145 prostate was over 100 µM each time. Besides, the TGI in the test on SK-MEL-5 melanoma and with NCI/ADR-RES ovarian was over 100 µM throughout.
Consider `CCC(=O)OC1CCn2c1nc1c2C(=O)C(C)=C(N2CC2)C1=O` (stereo unspecified), for which the GI50 in the test on A549 NSCLC was 0.0233 µM; with NCI-H522 lung, 0.0159 µM; with HCT-15 colon, 0.0204 µM; in the test on COLO 205 colon it was 0.101 µM; with CCRF-CEM leukemia it was 0.523 µM; in the test with IGROV1 ovarian, 0.0573 µM. The GI50 in the test on SK-MEL-5 melanoma is 0.165 µM. Besides, the TGI is 0.0404 µM and 0.0899 µM in the test with NCI-H522 lung; 0.209 µM and 0.0527 µM in the test with HCT-15 colon; 0.235 µM and 0.561 µM in the test on COLO 205 colon; 3.85 µM and 21.8 µM with CCRF-CEM leukemia; 0.237 µM and 1.25 µM with IGROV1 ovarian; 0.0503 µM with DU-145 prostate. The TGI was 0.0765 µM and 0.319 µM with SK-MEL-5 melanoma; 0.4 µM in the test on NCI/ADR-RES ovarian.
Regarding `O=C1C(Cl)=C(Nc2ccc3cn[nH]c3c2)C(=O)c2ccccc21`, the GI50 in the test on A549 NSCLC was 2.38 µM; with NCI-H522 lung, 1.55 µM; in the test on HCT-15 colon, 1.01 µM; with COLO 205 colon, 1.42 µM; in the test on CCRF-CEM leukemia, 1.52 µM; with IGROV1 ovarian it was 0.198 µM. Moreover, the GI50 was 1.17 µM in the test with DU-145 prostate, 0.308 µM in the test with SK-MEL-5 melanoma and 1.62 µM in the test with NCI/ADR-RES ovarian. For the same molecule, the TGI in the test with A549 NSCLC was determined as 5.86 µM; with NCI-H522 lung, 2.94 µM; with HCT-15 colon, 2.17 µM; with COLO 205 colon, 2.89 µM; with CCRF-CEM leukemia, 3.91 µM; in the test with IGROV1 ovarian it was 2.02 µM. Besides, the results for the TGI with DU-145 prostate, with SK-MEL-5 melanoma and with NCI/ADR-RES ovarian were 2.39 µM, 1.26 µM and 3.42 µM, respectively.
Take `O=C1c2ccccc2S(=O)(=O)N1CSC(=S)N1CCCC1`: the GI50 in the test on A549 NSCLC is over 88.5 µM; with NCI-H522 lung it was 12.1 µM; in the test with HCT-15 colon, over 100 µM; in the test on COLO 205 colon, over 100 µM; with CCRF-CEM leukemia, 5.78 µM; in the test with IGROV1 ovarian, 19 µM. Besides, the GI50 was over 100 µM in the test with DU-145 prostate, over 27.6 µM in the test on SK-MEL-5 melanoma and over 100 µM in the test on NCI/ADR-RES ovarian. In addition, the TGI in the test with A549 NSCLC, in the test with NCI-H522 lung, with HCT-15 colon, in the test with COLO 205 colon, in the test on CCRF-CEM leukemia and with IGROV1 ovarian was over 100 µM in each case. Moreover, the TGI in the test with DU-145 prostate, in the test with SK-MEL-5 melanoma and with NCI/ADR-RES ovarian was over 100 µM each time.
With `N#C/C(=C\c1ccc(Br)cc1)n1nnc2cccc(F)c21`, the GI50 in the test on A549 NSCLC was 2.8 µM; in the test with HCT-15 colon, 0.478 µM; with COLO 205 colon it was 1.98 µM; in the test on CCRF-CEM leukemia, 0.444 µM; in the test with DU-145 prostate, 1.51 µM; with SK-MEL-5 melanoma, 1.41 µM. In addition, the GI50 in the test on NCI/ADR-RES ovarian is 0.398 µM. Moreover, the TGI was 13.2 µM in the test on A549 NSCLC; 1.89 µM in the test on HCT-15 colon; 5.02 µM with COLO 205 colon; over 100 µM with CCRF-CEM leukemia; 2.85 µM in the test on DU-145 prostate; 2.75 µM in the test with SK-MEL-5 melanoma. This molecule also gave a TGI in the test with NCI/ADR-RES ovarian of 2.19 µM.
Consider `Cn1cc2c(n1)c(N/N=C/c1ccccc1)nn1nnnc21`, for which the TGI in the test on A549 NSCLC, in the test on SR leukemia, in the test on HCT-15 colon, in the test with COLO 205 colon, in the test with CCRF-CEM leukemia and in the test on IGROV1 ovarian was over 100 µM throughout. Also, the TGI with SK-MEL-5 melanoma is over 100 µM.
As for `CN(C)c1ccc(/C=C2\CNC/C(=C\c3ccc(N(C)C)cc3)C2=O)cc1`, the TGI is 56.5 µM with A549 NSCLC; 82.8 µM in the test with SR leukemia; 15.5 µM in the test with HCT-15 colon; over 100 µM in the test with COLO 205 colon; over 100 µM in the test on CCRF-CEM leukemia; 97.1 µM in the test on IGROV1 ovarian. For the same molecule, the TGI in the test with SK-MEL-5 melanoma is over 100 µM.
As for `O=C(O)CCC1COc2ccccc2O1` (stereo unspecified), the TGI in the test with A549 NSCLC, with NCI-H522 lung, in the test on HCT-15 colon, in the test with COLO 205 colon, in the test with CCRF-CEM leukemia and in the test on IGROV1 ovarian was over 10 µM throughout. The TGI with DU-145 prostate, in the test with SK-MEL-5 melanoma and in the test on NCI/ADR-RES ovarian was over 10 µM each time.
Turning to `COc1ccc(NC(=O)C(=O)NNC(=O)c2sc(NNC(C)=O)nc2C)c([N+](=O)[O-])c1`, the TGI in the test on A549 NSCLC was over 100 µM; in the test on NCI-H522 lung, over 100 µM; with SR leukemia it was over 100 µM; in the test on HCT-15 colon it was over 100 µM; in the test with COLO 205 colon it was over 100 µM; in the test with CCRF-CEM leukemia, 61.7 µM. Moreover, in the test on SK-MEL-5 melanoma, the TGI is over 100 µM.
Turning to `CCOP(=O)(CC(=O)C1=C(O)C(CCCNC(=O)OC(C)(C)C)N(Cc2ccc(OC)c(OC)c2)C1=O)OCC` (stereo unspecified), the TGI with A549 NSCLC, with NCI-H522 lung, in the test on SR leukemia, in the test with COLO 205 colon, with CCRF-CEM leukemia and in the test on IGROV1 ovarian was over 100 µM in each case. Moreover, the TGI in the test with SK-MEL-5 melanoma was over 100 µM.
Turning to `Cc1cc(Cc2cc(C)c(NC(=O)C(=O)C3C(=O)NC(=S)NC3=O)c(C(C)C)c2)cc(C(C)C)c1NC(=O)C(=O)C1C(=O)NC(=S)NC1=O`, the TGI in the test on A549 NSCLC, with NCI-H522 lung, with SR leukemia, in the test on HCT-15 colon, in the test on COLO 205 colon and in the test with CCRF-CEM leukemia was over 100 µM in each case. In the test with IGROV1 ovarian, this molecule had a TGI of over 100 µM.
